In PubChem BioAssay (NCI):
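How tested: cells in 96-well plates exposed to compound for 48 hours at five concentrations. TGI is the concentration that stops growth completely.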

Legend:
Experiment in all cases: inhibition of tumour cell growth, NCI panel, 48 h
COLO 205 colon = system: COLO 205 colon
HCC-2998 colon = system: HCC-2998 colon
HCT-116 colon = system: HCT-116 colon
HL-60(TB) leukemia = system: HL-60(TB) leukemia
HOP-62 NSCLC = system: HOP-62 NSCLC
KM12 colon = system: KM12 colon
LXFL 529 NSCLC = system: LXFL 529 NSCLC
M14 melanoma = system: M14 melanoma
MALME-3M melanoma = system: MALME-3M melanoma
NCI-H23 lung = system: NCI-H23 lung
NCI-H460 lung = system: NCI-H460 lung
OVCAR-4 ovarian = system: OVCAR-4 ovarian
OVCAR-5 ovarian = system: OVCAR-5 ovarian
OVCAR-8 ovarian = system: OVCAR-8 ovarian
SK-MEL-2 melanoma = system: SK-MEL-2 melanoma
SK-MEL-28 melanoma = system: SK-MEL-28 melanoma
SK-OV-3 ovarian = system: SK-OV-3 ovarian
SNB-19 CNS = system: SNB-19 CNS
UACC-257 melanoma = system: UACC-257 melanoma
DU-145 prostate = system: DU-145 prostate

C=CCC1(CN(C)C)CC/C(=C\c2ccc(Cl)cc2)C1=O (stereo not drawn)
TGI (COLO 205 colon): > 59.8 µM | TGI (HCC-2998 colon): > 70.5 µM | TGI (HCT-116 colon): > 94.5 µM | TGI (HL-60(TB) leukemia): 74.4 µM | TGI (HOP-62 NSCLC): > 100 µM | TGI (KM12 colon): > 78.5 µM | TGI (LXFL 529 NSCLC): > 74.8 µM | TGI (M14 melanoma): > 64.9 µM | TGI (MALME-3M melanoma): > 100 µM | TGI (NCI-H23 lung): > 100 µM | TGI (NCI-H460 lung): 45.6 µM | TGI (OVCAR-4 ovarian): > 94.5 µM | TGI (OVCAR-5 ovarian): > 100 µM | TGI (OVCAR-8 ovarian): > 100 µM | TGI (SK-MEL-2 melanoma): > 100 µM | TGI (SK-MEL-28 melanoma): > 100 µM | TGI (SK-OV-3 ovarian): > 100 µM | TGI (SNB-19 CNS): > 100 µM | TGI (UACC-257 melanoma): 54.1 µM

CCCCC/C=C1\CCC(CN(C)C)C1=O (stereo not drawn)
TGI (COLO 205 colon): 22.6 µM | TGI (HCC-2998 colon): 31 µM | TGI (HCT-116 colon): 25 µM | TGI (HL-60(TB) leukemia): 30.3 µM | TGI (HOP-62 NSCLC): 31.7 µM | TGI (KM12 colon): 17 µM | TGI (LXFL 529 NSCLC): 3.9 µM | TGI (M14 melanoma): 28.1 µM | TGI (MALME-3M melanoma): 28.7 µM | TGI (NCI-H23 lung): 34.6 µM | TGI (NCI-H460 lung): > 100 µM | TGI (OVCAR-4 ovarian): 42.2 µM | TGI (OVCAR-5 ovarian): 33.7 µM | TGI (OVCAR-8 ovarian): > 41.7 µM | TGI (SK-MEL-2 melanoma): 34.7 µM | TGI (SK-MEL-28 melanoma): 23.9 µM | TGI (SK-OV-3 ovarian): 27.4 µM | TGI (SNB-19 CNS): 36.9 µM | TGI (UACC-257 melanoma): 32.2 µM

Cn1c2ccccc2c2ncc3[nH]c4ccccc4c3c21
TGI (COLO 205 colon): 39.1 µM | TGI (HCC-2998 colon): > 100 µM | TGI (HCT-116 colon): 26 µM | TGI (HL-60(TB) leukemia): 41.3 µM | TGI (HOP-62 NSCLC): > 100 µM | TGI (KM12 colon): 33.9 µM | TGI (LXFL 529 NSCLC): 80.1 µM | TGI (M14 melanoma): 35.2 µM | TGI (MALME-3M melanoma): > 100 µM | TGI (NCI-H23 lung): 43.7 µM | TGI (NCI-H460 lung): 32.2 µM | TGI (OVCAR-4 ovarian): 32.1 µM | TGI (OVCAR-5 ovarian): 47.8 µM | TGI (OVCAR-8 ovarian): 52.7 µM | TGI (SK-MEL-2 melanoma): > 100 µM | TGI (SK-MEL-28 melanoma): 31.7 µM | TGI (SK-OV-3 ovarian): 80.8 µM | TGI (SNB-19 CNS): > 100 µM | TGI (UACC-257 melanoma): 42.6 µM

Cc1nn(C(=O)CC(=O)Nc2ccc(Cl)cc2)c(C)c1N=Nc1ccccc1C(=O)O
TGI (COLO 205 colon): > 100 µM | TGI (HCC-2998 colon): > 100 µM | TGI (HCT-116 colon): > 100 µM | TGI (HL-60(TB) leukemia): > 100 µM | TGI (HOP-62 NSCLC): > 100 µM | TGI (KM12 colon): > 100 µM | TGI (LXFL 529 NSCLC): > 100 µM | TGI (M14 melanoma): > 100 µM | TGI (MALME-3M melanoma): > 100 µM | TGI (NCI-H23 lung): > 100 µM | TGI (NCI-H460 lung): > 100 µM | TGI (OVCAR-4 ovarian): > 100 µM | TGI (OVCAR-5 ovarian): > 100 µM | TGI (OVCAR-8 ovarian): > 100 µM | TGI (SK-MEL-2 melanoma): > 100 µM | TGI (SK-MEL-28 melanoma): > 100 µM | TGI (SK-OV-3 ovarian): > 100 µM | TGI (SNB-19 CNS): > 100 µM | TGI (UACC-257 melanoma): > 100 µM

CC(C)=CC1CC(=[N+]=[N-])C(=O)C1(C)C (stereo not drawn)
TGI (COLO 205 colon): > 100 µM | TGI (HCC-2998 colon): > 100 µM | TGI (HCT-116 colon): > 100 µM | TGI (HL-60(TB) leukemia): > 100 µM | TGI (HOP-62 NSCLC): > 100 µM | TGI (KM12 colon): > 100 µM | TGI (LXFL 529 NSCLC): > 100 µM | TGI (M14 melanoma): > 100 µM | TGI (MALME-3M melanoma): > 100 µM | TGI (NCI-H23 lung): > 100 µM | TGI (NCI-H460 lung): > 100 µM | TGI (OVCAR-4 ovarian): > 100 µM | TGI (OVCAR-5 ovarian): > 100 µM | TGI (OVCAR-8 ovarian): > 100 µM | TGI (SK-MEL-2 melanoma): > 100 µM | TGI (SK-MEL-28 melanoma): > 100 µM | TGI (SK-OV-3 ovarian): > 100 µM | TGI (SNB-19 CNS): > 100 µM | TGI (UACC-257 melanoma): > 100 µM

COc1cc2c3c(c1OC)-c1cc4c(cc1CC3(C#N)N(C(=O)c1ccccc1)CC2)OCO4 (stereo not drawn)
TGI (COLO 205 colon): > 100 µM | TGI (DU-145 prostate): > 100 µM | TGI (HCC-2998 colon): > 100 µM | TGI (HCT-116 colon): > 87.2 µM | TGI (HL-60(TB) leukemia): > 100 µM | TGI (HOP-62 NSCLC): > 76.1 µM | TGI (KM12 colon): > 100 µM | TGI (LXFL 529 NSCLC): 56.3 µM | TGI (M14 melanoma): > 100 µM | TGI (MALME-3M melanoma): 97.7 µM | TGI (NCI-H23 lung): 54.1 µM | TGI (NCI-H460 lung): > 100 µM | TGI (OVCAR-4 ovarian): 43 µM | TGI (OVCAR-5 ovarian): > 56.2 µM | TGI (OVCAR-8 ovarian): > 74.2 µM | TGI (SK-MEL-2 melanoma): > 100 µM | TGI (SK-MEL-28 melanoma): > 100 µM | TGI (SK-OV-3 ovarian): 44.4 µM | TGI (SNB-19 CNS): 46 µM | TGI (UACC-257 melanoma): > 100 µM

COC(=O)[C@@]1(C)/C(=N/NS(=O)(=O)c2ccc(C)cc2)CCC[C@@H]1C
TGI (COLO 205 colon): > 100 µM | TGI (HCC-2998 colon): > 100 µM | TGI (HCT-116 colon): > 100 µM | TGI (HL-60(TB) leukemia): > 100 µM | TGI (HOP-62 NSCLC): > 100 µM | TGI (KM12 colon): > 100 µM | TGI (LXFL 529 NSCLC): > 100 µM | TGI (M14 melanoma): > 100 µM | TGI (MALME-3M melanoma): > 100 µM | TGI (NCI-H23 lung): > 100 µM | TGI (NCI-H460 lung): > 100 µM | TGI (OVCAR-4 ovarian): > 100 µM | TGI (OVCAR-5 ovarian): > 100 µM | TGI (OVCAR-8 ovarian): > 100 µM | TGI (SK-MEL-2 melanoma): > 100 µM | TGI (SK-MEL-28 melanoma): > 100 µM | TGI (SK-OV-3 ovarian): > 100 µM | TGI (SNB-19 CNS): > 100 µM | TGI (UACC-257 melanoma): > 100 µM

O=C(CSc1c2ccccc2nc2ccccc12)Nc1ccccc1-c1ccccc1NC(=O)CSc1c2ccccc2nc2ccccc12
TGI (COLO 205 colon): > 75 µM | TGI (HCC-2998 colon): 34.5 µM | TGI (HCT-116 colon): > 100 µM | TGI (HL-60(TB) leukemia): 18.7 µM | TGI (HOP-62 NSCLC): > 63.3 µM | TGI (KM12 colon): > 62 µM | TGI (LXFL 529 NSCLC): 25.9 µM | TGI (M14 melanoma): > 73.9 µM | TGI (MALME-3M melanoma): > 91.3 µM | TGI (NCI-H23 lung): 61.6 µM | TGI (NCI-H460 lung): > 88.4 µM | TGI (OVCAR-4 ovarian): > 40.3 µM | TGI (OVCAR-5 ovarian): > 100 µM | TGI (OVCAR-8 ovarian): > 86.8 µM | TGI (SK-MEL-2 melanoma): 45.3 µM | TGI (SK-MEL-28 melanoma): 52 µM | TGI (SK-OV-3 ovarian): > 100 µM | TGI (SNB-19 CNS): > 61.7 µM | TGI (UACC-257 melanoma): 75.8 µM
